Among the test systems are MDA-MB-435; HCT-15; SNB-19; NCI-H23; DU-145; SK-MEL-5; SW-620; SK-MEL-28; TK-10; A498; MOLT-4; EKVX; NCI-H226; SR; ACHN; OVCAR-8; NCI-H460; SF-539; SNB-75.
What all share (experiment): NCI tumour cell line growth inhibition, 48 h

Several values for one entry are separate records, joined by “and”; a condition that tells them apart may be missing. Identical values can stand only once.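 Where inhibition never reached the appropriate level, the endpoint shown equals the highest concentration tested. Otherwise, values were interpolated linearly from a five-concentration, 48-hour dose response in 96-well plates. At the GI50, growth is halved.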 Activity calls are given as the source filed them. No stated cut-off is given here; in the data, active = GI50 up to about 1.1 µM and inactive = higher.

For the compound `CC(C)(C)OCC1NC(=O)[C@@H]2Cc3c([nH]c4ccccc34)C(C3CCCCC3)N2C1=O` (stereo partly specified), the GI50 in the assay on MDA-MB-435 was 16 µM (inactive); in the assay on HCT-15, 24 µM; in the assay with SNB-19, 37.3 µM (inactive); in the assay on NCI-H23, 21.8 µM (inactive); in the assay on DU-145, 34.8 µM (inactive); in the assay with SK-MEL-5, 15.2 µM (inactive). For the same compound, the GI50 in the assay on SW-620 was 25.3 µM (inactive); in the assay with SK-MEL-28 it was 22.6 µM (inactive); in the assay with TK-10, 24.3 µM (inactive); in the assay on A498, 32.2 µM (inactive); in the assay with MOLT-4, 16.5 µM (inactive); in the assay on EKVX, 27.2 µM (inactive). For the same compound, the GI50 in the assay with NCI-H226 was 22 µM (inactive); with SR it was 16.2 µM (inactive); with ACHN, 27 µM (inactive); in the assay on OVCAR-8 it was 29.9 µM (inactive).
On to `CC(C)(CN1CCCCC1)C(=O)CC(SCCS(=O)(=O)O)c1ccc(Cl)c(Cl)c1` (stereo unspecified), for which the GI50 was 2.21 µM (inactive) in the assay with MDA-MB-435; 2.07 µM in the assay with HCT-15; 10.4 µM (inactive) with SNB-19; 3.72 µM (inactive) in the assay on NCI-H23; 11.4 µM (inactive) in the assay on DU-145; 8.73 µM (inactive) in the assay with SK-MEL-5. Further, the GI50 in the assay on SW-620 was 2.22 µM (inactive); in the assay on NCI-H460, 2.22 µM (inactive); in the assay with SF-539 it was 2.65 µM (inactive); in the assay with TK-10, 5.46 µM (inactive); in the assay on A498, 3.56 µM (inactive); with MOLT-4 it was 3.61 µM (inactive). Also, the GI50 in the assay on EKVX is 6.59 µM (inactive); in the assay on NCI-H226 it was 20 µM (inactive); in the assay with SR, 3.1 µM (inactive); with ACHN, 3.29 µM (inactive); with OVCAR-8, 2.75 µM (inactive).
In the case of `O=C(n1c(=O)n(-c2ccc(Cl)cc2)c(=O)n1C(=O)C(Cl)(Cl)Cl)C(Cl)(Cl)Cl`, the GI50 in the assay on MDA-MB-435 was 31.6 µM (inactive); in the assay with HCT-15, greater than 10 µM; with SNB-19 it was > 100 µM (inactive); in the assay on NCI-H23, > 100 µM (inactive); with DU-145, > 100 µM (inactive); in the assay with SK-MEL-5 it was > 100 µM (inactive). The GI50 in the assay on SW-620, in the assay on NCI-H460, in the assay on SF-539, in the assay with SK-MEL-28, in the assay with TK-10 and in the assay on A498 was > 100 µM (inactive) throughout. Besides, the GI50 in the assay on MOLT-4 was > 100 µM (inactive); with EKVX, > 100 µM (inactive); in the assay with SR, > 100 µM (inactive); in the assay on ACHN it was 12.7 µM (inactive); with OVCAR-8, > 100 µM (inactive).
Take `CC1=CC(=O)CC2(C)CCC(C(C)CC(=O)CC(C)C)CC12OO` (stereo unspecified): the GI50 with MDA-MB-435 is 17.5 µM (inactive) and 18.3 µM (inactive); in the assay on SNB-19, > 100 µM (inactive) and 95.5 µM (inactive); with NCI-H23 it was 16.5 µM (inactive) and 19.9 µM (inactive); in the assay on DU-145, 18 µM (inactive) and 16 µM (inactive); with SK-MEL-5, 15.7 µM (inactive) and 21 µM (inactive); in the assay on SW-620, 19 µM (inactive) and 17.3 µM (inactive). The GI50 in the assay on SF-539 is 16.4 µM (inactive) and 15.2 µM (inactive); with SK-MEL-28, 18.5 µM (inactive) and 15.2 µM (inactive); with TK-10, 19.3 µM (inactive) and 18.7 µM (inactive); with A498, 22.4 µM (inactive) and 16.9 µM (inactive); with MOLT-4 it was 14.8 µM (inactive) and 15.8 µM (inactive); in the assay with EKVX it was 17.9 µM (inactive) and 19.9 µM (inactive). The GI50 in the assay with NCI-H226 is 18.3 µM (inactive) and 18.7 µM (inactive); in the assay with SR it was 18.5 µM (inactive) and 20.6 µM (inactive); in the assay on ACHN, 17.6 µM (inactive) and 17.1 µM (inactive); in the assay on OVCAR-8, 19.2 µM (inactive) and 27.7 µM (inactive).
As to `COc1cccc(-c2cccc(SC)n2)n1`, the GI50 was 26.4 µM (inactive) in the assay on MDA-MB-435; 27 µM with HCT-15; 40.7 µM (inactive) in the assay with SNB-19; 23.8 µM (inactive) with NCI-H23; 34.4 µM (inactive) in the assay with DU-145; 20.5 µM (inactive) in the assay on SK-MEL-5. For the same compound, the GI50 in the assay with SW-620 was 32 µM (inactive); with NCI-H460 it was 29 µM (inactive); in the assay on SF-539, 32.1 µM (inactive); with SK-MEL-28, 29.6 µM (inactive); with TK-10 it was 39.2 µM (inactive); in the assay on MOLT-4 it was 21.5 µM (inactive). For the same compound, the GI50 with EKVX is 17.7 µM (inactive); in the assay with NCI-H226, 15.8 µM (inactive); in the assay with SR, 18.1 µM (inactive); with SNB-75, 26.4 µM (inactive); in the assay on ACHN it was 36.8 µM (inactive); in the assay with OVCAR-8 it was 35.6 µM (inactive).
As for `O=C(Sc1n[nH]c(=O)[nH]c1=O)c1cccc2nc3ccccc3nc12`, the GI50 was 13.7 µM (inactive) in the assay with MDA-MB-435; 26.7 µM with HCT-15; > 100 µM (inactive) in the assay on SNB-19; 3.78 µM (inactive) with NCI-H23; 10.6 µM (inactive) in the assay on DU-145; 3.41 µM (inactive) in the assay on SK-MEL-5. Moreover, the GI50 in the assay with SW-620 was 41.2 µM (inactive); with NCI-H460, 8.63 µM (inactive); in the assay with SF-539, 35.6 µM (inactive); in the assay on SK-MEL-28, 30.7 µM (inactive); with TK-10 it was > 100 µM (inactive); with A498, > 100 µM (inactive). For the same compound, the GI50 with MOLT-4 was > 100 µM (inactive); with EKVX it was > 100 µM (inactive); with NCI-H226, 34.4 µM (inactive); in the assay with SR it was > 100 µM (inactive); in the assay on ACHN it was 30.2 µM (inactive); in the assay on OVCAR-8, > 100 µM (inactive).
For `CSCCC(NCc1c(O)ccc2ccc(=O)oc12)C(=O)O` (stereo unspecified), the GI50 in the assay with MDA-MB-435 is 70.8 µM (inactive); in the assay with HCT-15, greater than 100 µM; in the assay with SNB-19 it was > 100 µM (inactive); in the assay with NCI-H23, > 100 µM (inactive); with DU-145, > 100 µM (inactive); with SK-MEL-5 it was 61.5 µM (inactive). Moreover, the GI50 with SW-620, with NCI-H460, in the assay with SF-539, in the assay on SK-MEL-28, with TK-10 and in the assay with MOLT-4 was > 100 µM (inactive) each time. Also, the GI50 in the assay with EKVX was > 100 µM (inactive); in the assay with NCI-H226, > 100 µM (inactive); in the assay with SR, > 100 µM (inactive); in the assay on SNB-75, 16.9 µM (inactive); with ACHN it was > 100 µM (inactive); in the assay on OVCAR-8 it was > 100 µM (inactive).
Take `CCc1n[nH]c(=O)n1/N=C/c1ccccc1Cl`: the GI50 with MDA-MB-435 was 85.7 µM (inactive); with HCT-15, greater than 100 µM; with SNB-19, > 100 µM (inactive); in the assay with NCI-H23 it was > 100 µM (inactive); in the assay on DU-145 it was > 100 µM (inactive); with SK-MEL-5, > 100 µM (inactive). Further, the GI50 with SW-620, with NCI-H460, in the assay on SF-539, in the assay on SK-MEL-28, in the assay on TK-10 and in the assay on A498 was > 100 µM (inactive) throughout. Moreover, the GI50 with MOLT-4 was > 100 µM (inactive); in the assay on EKVX, 1.42 µM (inactive); with NCI-H226, 88.5 µM (inactive); in the assay with SR, > 100 µM (inactive); in the assay with ACHN, > 100 µM (inactive); in the assay on OVCAR-8 it was > 100 µM (inactive).
Consider `CC1(C)NC(C(=O)c2ccccc2)=[N+]([O-])C1(O)c1ccccc1` (stereo unspecified), for which the GI50 in the assay on MDA-MB-435 was > 100 µM (inactive); in the assay on HCT-15, 81.3 µM; with SNB-19 it was > 100 µM (inactive); in the assay on NCI-H23 it was > 100 µM (inactive); in the assay on DU-145 it was > 100 µM (inactive); in the assay on SK-MEL-5, 93.3 µM (inactive). Further, the GI50 in the assay with SW-620, in the assay with NCI-H460, in the assay with SF-539, in the assay with SK-MEL-28, with TK-10 and in the assay with MOLT-4 was > 100 µM (inactive) in each case. Besides, the GI50 with EKVX, in the assay on NCI-H226, in the assay on SR, in the assay with SNB-75, in the assay with ACHN and in the assay with OVCAR-8 was > 100 µM (inactive) each time.
For `O=[As](O)(O)c1ccc(/N=N/c2ccc([As](=O)(O)O)cc2)cc1`, the GI50 is > 100 µM (inactive) in the assay on MDA-MB-435; greater than 100 µM with HCT-15; > 100 µM (inactive) with SNB-19; > 100 µM (inactive) in the assay with NCI-H23; > 100 µM (inactive) in the assay with DU-145; > 100 µM (inactive) in the assay on SK-MEL-5. Moreover, the GI50 in the assay with SW-620, in the assay with NCI-H460, with SK-MEL-28, in the assay with TK-10, in the assay on A498 and in the assay with MOLT-4 was > 100 µM (inactive) each time. The GI50 in the assay on EKVX, with NCI-H226, with SR, in the assay with ACHN and in the assay with OVCAR-8 was > 100 µM (inactive) throughout.
Take `CC(Br)C(=O)NN1C2=C(Nc3ccccc31)c1cccc3cccc2c13` (stereo unspecified): the GI50 in the assay with MDA-MB-435 was > 100 µM (inactive); with HCT-15 it was 66.1 µM; in the assay on SNB-19 it was > 100 µM (inactive); in the assay with NCI-H23, > 100 µM (inactive); in the assay with DU-145 it was > 100 µM (inactive); with SK-MEL-5, 62.1 µM (inactive). In addition, the GI50 in the assay with SW-620 is > 100 µM (inactive); with NCI-H460, 49.4 µM (inactive); in the assay with SF-539, > 100 µM (inactive); with SK-MEL-28, > 100 µM (inactive); with TK-10 it was 96.4 µM (inactive); in the assay on MOLT-4, 36.6 µM (inactive). Moreover, the GI50 with EKVX was > 100 µM (inactive); in the assay with NCI-H226 it was > 100 µM (inactive); with SR it was 41 µM (inactive); in the assay with SNB-75 it was 40.9 µM (inactive); in the assay on ACHN, 31.2 µM (inactive); with OVCAR-8, 55.8 µM (inactive).
